Laboratory results from patent US20230114728A1 (Venatorx Pharmaceuticals, Inc., priority 2019, published 2023).

Experiments:
[1] = target: T1, P. aeruginosa PBP3 (Pseudomonas aeruginosa, UniProt G3XD46); assay: Bocillin-FL fluorescence polarization competition binding assay, P. aeruginosa PBP3; conditions: fluorescence polarization competition binding assay using Bocillin-FL
T1 construct: made in house
Procedure, shortened: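 Binding of boronic acid inhibitors to purified Pseudomonas aeruginosa (PA01) PBP3 was measured by fluorescence polarization competition with Bocillin-FL, a fluorescent penicillin V. Reactions of 80 μl contained 0.75 μM PBP3 and 0.1 μM Bocillin-FL in 50 mM Hepes (pH 8.0), 300 mM NaCl and 5% (v/v) glycerol, in black 384-well plates. FP (Excitation 490 nm, Emission 520 nm) was read for up to 60 minutes. EC50 is the concentration that halves PBP-bound Bocillin-FL.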

[2] = target: T2, N. gonorrhoeae PBP2 (Neisseria gonorrhoeae, UniProt P08149); assay: Bocillin-FL fluorescence polarization competition binding assay, N. gonorrhoeae PBP2; conditions: fluorescence polarization competition binding assay using Bocillin-FL; read-out: N. gonorrhoeae PBP2 Potency
T2 construct: made in house
Procedure, shortened: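 Fluorescence polarization (ex 490/em 520 nm) competition of inhibitors against Bocillin-FL at 0.1 μM, read up to 60 min. Final PBP levels: E. coli PBP3 1.5 μM; A. baumannii PBP2 2.5 μM, PBP3 0.2 μM in Tris pH 8.0/NaCl/glycerol/Tween 20; N. gonorrhoeae PBP2 […] in Hepes pH 8.0/NaCl/glycerol. EC50 = concentration halving PBP-bound Bocillin-FL.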

T1 sequence (G3XD46 whole entry): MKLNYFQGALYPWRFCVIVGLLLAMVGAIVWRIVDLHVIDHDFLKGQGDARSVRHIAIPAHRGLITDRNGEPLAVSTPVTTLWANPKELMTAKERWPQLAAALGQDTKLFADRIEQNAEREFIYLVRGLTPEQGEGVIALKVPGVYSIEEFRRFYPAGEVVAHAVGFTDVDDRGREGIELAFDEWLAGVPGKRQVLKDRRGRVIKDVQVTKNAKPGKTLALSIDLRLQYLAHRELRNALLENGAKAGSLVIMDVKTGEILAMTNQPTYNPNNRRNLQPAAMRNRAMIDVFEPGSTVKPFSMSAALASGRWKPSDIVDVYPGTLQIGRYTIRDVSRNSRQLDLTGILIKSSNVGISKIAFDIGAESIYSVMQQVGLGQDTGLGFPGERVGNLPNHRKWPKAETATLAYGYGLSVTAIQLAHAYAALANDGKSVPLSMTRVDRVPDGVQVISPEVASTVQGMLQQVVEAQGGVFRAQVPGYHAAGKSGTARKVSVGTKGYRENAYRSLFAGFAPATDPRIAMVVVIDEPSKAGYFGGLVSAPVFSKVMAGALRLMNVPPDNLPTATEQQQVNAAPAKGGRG
T2 sequence (P08149 whole entry): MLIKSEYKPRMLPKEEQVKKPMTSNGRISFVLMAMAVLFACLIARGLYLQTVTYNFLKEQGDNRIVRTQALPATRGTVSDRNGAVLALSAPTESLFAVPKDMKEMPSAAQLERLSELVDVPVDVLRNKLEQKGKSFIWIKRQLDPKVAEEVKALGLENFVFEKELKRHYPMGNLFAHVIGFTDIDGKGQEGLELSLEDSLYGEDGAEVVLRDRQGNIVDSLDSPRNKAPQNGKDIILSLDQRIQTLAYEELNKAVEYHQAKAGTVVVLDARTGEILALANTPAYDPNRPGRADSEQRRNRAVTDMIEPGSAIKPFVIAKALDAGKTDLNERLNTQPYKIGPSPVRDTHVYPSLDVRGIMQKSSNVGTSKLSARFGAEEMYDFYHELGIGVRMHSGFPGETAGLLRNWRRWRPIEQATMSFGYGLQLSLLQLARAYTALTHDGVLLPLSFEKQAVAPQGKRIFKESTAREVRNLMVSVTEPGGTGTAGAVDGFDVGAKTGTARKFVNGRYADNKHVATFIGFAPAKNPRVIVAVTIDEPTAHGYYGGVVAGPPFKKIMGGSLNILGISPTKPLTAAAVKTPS

Compound | P. aeruginosa PBP3 Potency [1] | EC50 [2] [µM]
NCCN1CCN(C(=O)N[C@@H](C(=O)N[C@H]2Cc3cccc(C(=O)O)c3OB2O)c2ccc(O)c(Cl)c2F)C(=O)C1=O (single isomer, unassigned) [Example 186] | D (D represents a potency <10 μM) | < 10
NCCN1CCN(C(=O)N[C@H](C(=O)N[C@H]2Cc3cccc(C(=O)O)c3OB2O)c2ccc(O)c(Cl)c2F)C(=O)C1=O (single isomer, unassigned) [Example 187] | B (B represents a potency between 30 μM and 500 μM inclusive) | 10 to 30
NCCN1CCN(C(=O)N[C@@H](C(=O)N[C@H]2Cc3cccc(C(=O)O)c3OB2O)c2c(O)cc(O)cc2F)C(=O)C1=O (single isomer, unassigned) [Example 194] | D (D represents a potency <10 μM) | 30 to 100
NCCCN1CCN(C(=O)N[C@@H](C(=O)N[C@H]2Cc3cccc(C(=O)O)c3OB2O)c2c(O)cc(O)cc2F)C(=O)C1=O (single isomer, unassigned) [Example 195] | D (D represents a potency <10 μM) | 10 to 30
NCCN1CCN(C(=O)N[C@@H](C(=O)N[C@H]2Cc3cccc(C(=O)O)c3OB2O)c2ccc(O)c([N+](=O)[O-])c2)C(=O)C1=O (single isomer, unassigned) [Example 199] | D (D represents a potency <10 μM) | 10 to 30
NCCN1CCN(C(=O)N[C@H](C(=O)N[C@H]2Cc3cccc(C(=O)O)c3OB2O)c2ccc(O)c([N+](=O)[O-])c2)C(=O)C1=O (single isomer, unassigned) [Example 200] | C (C represents a potency between 10 and 30 μM) | > 100
CCN1CCN(C(=O)N[C@H](C(=O)N[C@H]2Cc3cccc(C(=O)O)c3OB2O)c2ccc(C(=O)O)c(F)c2Cl)C(=O)C1=O (single isomer, unassigned) [Example 202] | C (C represents a potency between 10 and 30 μM) | > 100
CCN1CCN(C(=O)N[C@@H](C(=O)N[C@H]2Cc3cccc(C(=O)O)c3OB2O)c2ccc(C(=O)O)c(F)c2Cl)C(=O)C1=O (single isomer, unassigned) [Example 203] | D (D represents a potency <10 μM) | < 10
NCCN1CCN(C(=O)N[C@H](C(=O)N[C@H]2Cc3cccc(C(=O)O)c3OB2O)c2c(F)cccc2F)C(=O)C1=O (single isomer, unassigned) [Example 204] | B (B represents a potency between 30 μM and 500 μM inclusive) | 
NCCN1CCN(C(=O)N[C@@H](C(=O)N[C@H]2Cc3cccc(C(=O)O)c3OB2O)c2c(F)cccc2Cl)C(=O)C1=O (single isomer, unassigned) [Example 205] | C (C represents a potency between 10 and 30 μM) | 
NCCN1CCN(C(=O)N[C@H](C(=O)N[C@H]2Cc3cccc(C(=O)O)c3OB2O)c2c(F)cccc2Cl)C(=O)C1=O (single isomer, unassigned) [Example 206] | B (B represents a potency between 30 μM and 500 μM inclusive) | 
CCN1CCN(C(=O)NC(C(=O)N[C@H]2Cc3ccc(F)c(C(=O)O)c3OB2O)c2ncc(C(=O)O)cc2F)C(=O)C1=O (stereo partly drawn) [Example 33, 6-(2-(((R)-8-carboxy-7-fluoro-2-hydroxy-3,4-dihydro-2H-benzo[e][1,2]oxaborinin-3-yl)amino)-1-(4-ethyl-2,3-dioxopiperazine-1-carboxamido)-2-oxoethyl)-5-fluoronicotinic acid] | D (D represents a potency <10 μM) | 
NCCCN1CCN(C(=O)NC(C(=O)N[C@H]2Cc3cccc(C(=O)O)c3OB2O)c2c(F)cc(O)cc2F)C(=O)C1=O (stereo partly drawn) [Example 183, (3R)-3-(2-(4-(3-aminopropyl)-2,3-dioxopiperazine-1-carboxamido)-2-(2,6-difluoro-4-hydroxyphenyl)acetamido)-2-hydroxy-3,4-dihydro-2H-benzo[e][1,2]oxaborinine-8-carboxylic acid] | D (D represents a potency <10 μM) | < 10
CCN1CCN(C(=O)NC(C(=O)N[C@H]2Cc3cccc(C(=O)O)c3OB2O)c2cc([N+](=O)[O-])c(O)cc2F)C(=O)C1=O (stereo partly drawn) [Example 184, (3R)-3-(2-(4-ethyl-2,3-dioxopiperazine-1-carboxamido)-2-(2-fluoro-4-hydroxy-5-nitrophenyl)acetamido)-2-hydroxy-3,4-dihydro-2H-benzo[e][1,2]oxaborinine-8-carboxylic acid] | D (D represents a potency <10 μM) | < 10
CCN1CCN(C(=O)NC(C(=O)N[C@H]2Cc3cccc(C(=O)O)c3OB2O)c2ccc(O)c(Cl)c2F)C(=O)C1=O (stereo partly drawn) [Example 185, (3R)-3-(2-(3-chloro-2-fluoro-4-hydroxyphenyl)-2-(4-ethyl-2,3-dioxopiperazine-1-carboxamido)acetamido)-2-hydroxy-3,4-dihydro-2H-benzo[e][1,2]oxaborinine-8-carboxylic acid] | D (D represents a potency <10 μM) | < 10
CCN1CCN(C(=O)NC(C(=O)N[C@H]2Cc3cccc(C(=O)O)c3OB2O)c2cc(C#N)c(OC)cc2F)C(=O)C1=O (stereo partly drawn) [Example 192, (3R)-3-(2-(5-cyano-2-fluoro-4-methoxyphenyl)-2-(4-ethyl-2,3-dioxopiperazine-1-carboxamido)acetamido)-2-hydroxy-3,4-dihydro-2H-benzo[e][1,2]oxaborinine-8-carboxylic acid] | D (D represents a potency <10 μM) | 10 to 30
O=C(O)c1cccc2c1OB(O)[C@@H](NC(=O)C(NC(=O)N1CCN(CC3CNC3)C(=O)C1=O)c1c(F)cc(O)cc1F)C2 (stereo partly drawn) [Example 193, (3R)-3-(2-(4-(azetidin-3-ylmethyl)-2,3-dioxopiperazine-1-carboxamido)-2-(2,6-difluoro-4-hydroxyphenyl)acetamido)-2-hydroxy-3,4-dihydro-2H-benzo[e][1,2]oxaborinine-8-carboxylic acid] | D (D represents a potency <10 μM) | 10 to 30
CCN1CCN(C(=O)NC(C(=O)N[C@H]2Cc3cccc(C(=O)O)c3OB2O)c2ccc(C(=O)O)c(O)c2)C(=O)C1=O (stereo partly drawn) [Example 196, (3R)-3-(2-(4-carboxy-3-hydroxyphenyl)-2-(4-ethyl-2,3-dioxopiperazine-1-carboxamido)acetamido)-2-hydroxy-3,4-dihydro-2H-benzo[e][1,2]oxaborinine-8-carboxylic acid] | D (D represents a potency <10 μM) | < 10
CCN1CCN(C(=O)NC(C(=O)N[C@H]2Cc3cccc(C(=O)O)c3OB2O)c2cc(NS(N)(=O)=O)ccc2F)C(=O)C1=O (stereo partly drawn) [Example 197, (3R)-3-(2-(4-ethyl-2,3-dioxopiperazine-1-carboxamido)-2-(2-fluoro-5-(sulfamoylamino)phenyl)acetamido)-2-hydroxy-3,4-dihydro-2H-benzo[e][1,2]oxaborinine-8-carboxylic acid] | D (D represents a potency <10 μM) | 
NS(=O)(=O)Nc1ccc(F)c(C(NC(=O)N2CCN(CCF)C(=O)C2=O)C(=O)N[C@H]2Cc3cccc(C(=O)O)c3OB2O)c1 (stereo partly drawn) [Example 198, (3R)-3-(2-(2-fluoro-5-(sulfamoylamino)phenyl)-2-(4-(2-fluoroethyl)-2,3-dioxopiperazine-1-carboxamido)acetamido)-2-hydroxy-3,4-dihydro-2H-benzo[e][1,2]oxaborinine-8-carboxylic acid] | D (D represents a potency <10 μM) | 
CCN1CCN(C(=O)NC(C(=O)N[C@H]2Cc3cccc(C(=O)O)c3OB2O)c2ccc(C(=O)O)c(Cl)c2Cl)C(=O)C1=O (stereo partly drawn) [Example 201, (3R)-3-(2-(4-carboxy-2,3-dichlorophenyl)-2-(4-ethyl-2,3-dioxopiperazine-1-carboxamido)acetamido)-2-hydroxy-3,4-dihydro-2H-benzo[e][1,2]oxaborinine-8-carboxylic acid] | D (D represents a potency <10 μM) | 10 to 30
CCN1CCN(C(=O)NC(C(=O)N[C@H]2Cc3cccc(C(=O)O)c3OB2O)c2cc(C#N)c(O)cc2F)C(=O)C1=O (stereo partly drawn) [Example 209, (3R)-3-(2-(5-cyano-2-fluoro-4-hydroxyphenyl)-2-(4-ethyl-2,3-dioxopiperazine-1-carboxamido)acetamido)-2-hydroxy-3,4-dihydro-2H-benzo[e][1,2]oxaborinine-8-carboxylic acid] | D (D represents a potency <10 μM) | 
O=C(O)c1cccc2c1OB(O)[C@@H](NC(=O)C(NC(=O)N1CCN(C3CNC3)C(=O)C1=O)c1c(F)cc(O)cc1F)C2 (stereo partly drawn) [Example 212, (3R)-3-(2-(4-(azetidin-3-yl)-2,3-dioxopiperazine-1-carboxamido)-2-(2,6-difluoro-4-hydroxyphenyl)acetamido)-2-hydroxy-3,4-dihydro-2H-benzo[e][1,2]oxaborinine-8-carboxylic acid] | D (D represents a potency <10 μM) | 
CCN1CCN(C(=O)NC(C(=O)N[C@H]2Cc3cccc(C(=O)O)c3OB2O)c2c(F)cc(NC(=O)NC)cc2F)C(=O)C1=O (stereo partly drawn) [Example 213, (3R)-3-(2-(2,6-difluoro-4-(3-methylureido)phenyl)-2-(4-ethyl-2,3-dioxopiperazine-1-carboxamido)acetamido)-2-hydroxy-3,4-dihydro-2H-benzo[e][1,2]oxaborinine-8-carboxylic acid] | D (D represents a potency <10 μM) | 
